Test results taken from the METLIN SMRT retention time set (Domingo-Almenara et al. 2019).

Assay: gradient 5% acetonitrile 3 min, to 50% in 2 min, to 85% in 15 min, held 3 min, 100 µL/min
Conditions: column: Zorbax Extend-C18 2.1 x 50 mm; eluents: water / acetonitrile, 0.1% formic acid
Method in brief: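 Using water and acetonitrile that each contained 0.1% formic acid, mixtures of ~100 pure standards were separated at 100 μL/min on a Zorbax Extend-C18 column (2.1 × 50 mm, 1.8 μm). The HPLC fed a quadrupole time-of-flight mass spectrometer working in positive and negative ionization mode, with dead and dwell volumes of 40 μL and 900 μL. Data were acquired over 3 months. Retention time was read from computationally picked adduct peaks after manual inspection of each.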

Structure (SMILES)	RP-LC retention time [s]
CN1C(=O)C2(CCN(C(=O)Cc3ccc(Cl)cc3)C2)c2ccccc21 (stereo not drawn)	872
COC(=O)c1ccsc1NC(=O)c1c[nH]c2ccccc12	882
COc1ccc(CC(C)(O)CNC(=O)C2CC2)cc1 (stereo not drawn)	631
CCOc1ccc(N(C)C(=O)C2CCN(S(=O)(=O)c3ccc4c(c3)sc(=O)n4C)CC2)cc1	885
CCn1c(=O)n(CC)c2cc(S(=O)(=O)c3ccc(C)cc3)c(N)cc21	760
CCC(=O)N1CCc2sc(C(=O)N3CCN(c4cccc(Cl)c4)CC3)cc2C1	900
COCC(O)Cn1ccnc1[N+](=O)[O-] (stereo not drawn)	609
Cn1ncc2c3ccccc3n(CC(=O)NCCc3cccs3)c2c1=O	784
COc1ccc(C(=O)N2CCN(c3cc(-c4cccs4)[nH]n3)CC2)cc1	749
C[C@@H]1CCNC(=O)c2cc3ccc(C(=O)Nc4nc5ccccc5n4CCCN(C)C)cc3n21	642
COCCCNc1c(-c2ccc(C)cc2)nc2sc(C(N)=O)c(C)n12	705
CCOC(=O)C1=C(CN(C)Cc2ccccc2)NC(=O)NC1c1ccc(F)cc1 (stereo not drawn)	663
COc1ccc(-c2nn(-c3ccccc3)cc2C2NC(=O)NC(C)=C2C(=O)OC(C)C)cc1 (stereo not drawn)	906
CC1CCN(CCCNC(=O)C2CCc3sc(C(=O)N4CCCC4)cc3C2)CC1 (stereo not drawn)	610
COCC(=O)N1CC2CN(S(=O)(=O)c3ccc(OC)cc3)CC(C1)O2	934
O=C(CCc1cc(Cl)no1)N1CCCCC1c1noc(COCC2CC2)n1 (stereo not drawn)	934
CCN(C)C(=O)C1CN(C(=O)c2cccs2)CC1c1cccc(C(F)(F)F)c1 (stereo not drawn)	823
CCN1CCN(C(=O)Nc2ccc(C(=O)OC)cc2)c2cccnc21	621
Cc1nc(CC(=O)Nc2nc(-c3ccc(C)c(C)c3)cs2)cs1	989
O=C(Nc1ccc(OCc2nnc(-c3ccccc3)o2)cc1)c1ccc(Cl)nc1	898
COc1ccc(Cl)c2c(=O)c3c([nH]c12)CCN(CC(=O)Nc1cccc(C#N)c1)C3	801
CCn1ccc2cc(S(=O)(=O)N3CCC(C(=O)NC(C)Cc4ccco4)CC3)ccc21 (stereo not drawn)	905
CC(=O)Nc1ccc(-c2noc(C3CCN(C(=O)CCC4CCCC4)CC3)n2)cc1	924

Structure (SMILES)	RP-LC retention time [s]
CCN(CC)C(=O)c1ccc(Cn2nc(C)c(S(=O)(=O)N3CCC(C)CC3)c2C)cc1	917
CN1C(=O)c2cc(C(=O)NCCc3ccc(Cl)cc3)nn2CC1(C)C(=O)NCc1ccccc1 (stereo not drawn)	823
CCOC(=O)N1CCC(NC(=O)CCc2cc3ccc(C)cc3[nH]c2=O)CC1	689
Cn1cnnc1-c1nn(C)c2c1CN(C(=O)c1n[nH]c3c1CCCCCC3)CC2	650
CCOc1ccccc1C(=O)N1CCC2(CC1)N=C(c1cccc(Br)c1)NO2	951
CCC(CO)NCc1ccc(-c2cccc(Cl)c2C)o1 (stereo not drawn)	683
Cc1ccccc1-c1nnc(CSc2nnc(NC(=O)c3ccc(C(F)(F)F)cc3)s2)o1	1050
COc1ccc(CNC(=O)C2CCCN2S(=O)(=O)c2cc3c(cc2Cl)NC(=O)CO3)cc1 (stereo not drawn)	745
O=C(CC1c2ncccc2C(=O)N1c1ccccc1)N1CCN(C2CCCCC2)CC1 (stereo not drawn)	591
O=C(CN1C(=O)CC(c2ccccc2)=Nc2ccccc21)NCc1ccccc1	919
CCc1ccc(S(=O)(=O)N2CCc3nc(CNC(=O)C4CCC4)n(C)c3C2)cc1	652
O=C(C1=NN(CCc2ccccc2)c2ccccc2S1(=O)=O)N1CCCCCC1	1020
CCc1nnc(C2CCN(S(=O)(=O)c3cccnc3)CC2)s1	652
Cc1ccc(Cn2c(N3CCCC(C(=O)NCc4ccc(C)o4)C3)nc3ccsc3c2=O)cc1 (stereo not drawn)	952
Cc1cc2n(n1)CCCN2C(=O)CCC(=O)N1CCN(c2ccccc2)CC1	678
O=C(NCCn1c(=O)n(Cc2ccc(F)cc2)c2cccnc21)c1ccc2c(c1)OCO2	778
CN(C)CCN1CC(C(=O)N2CCC(c3c[nH]c4ccccc34)(c3c[nH]c4ccccc34)CC2)CC1=O (stereo not drawn)	657
O=C(NCCCN1CCCC1)c1ccc(CS(=O)Cc2ccccc2Cl)o1 (stereo not drawn)	548
Cc1c(C(=O)O)nnn1-c1ccc2noc(-c3ccccc3)c2c1	775
Cc1cccc(NC(=O)c2cn(CC(=O)NC3CCCC3)c3nc(C)ccc3c2=O)c1	996
Cc1nc(-c2ccc(OCC(C)C)c(C#N)c2)sc1C(=O)O	1040
CCn1ccc2sc(C)c(C(=O)NCc3ccccc3Cl)c2c1=O	879
CCCCOC(=O)c1ccc(NC(=O)c2c(OCC)cc(=O)n3c2CCCC3)cc1	910

Continued, values first:

RP-LC retention time [s]	Structure (SMILES)
803	O=C(c1ccccc1)N1CCC(CCNS(=O)(=O)Cc2ccccc2)CC1
812	O=C(NCc1ccc(Cl)cc1)C1CCCN(c2ncnc3c2nc2n3CCCCC2)C1 (stereo not drawn)
1150	Fc1ccc(C2Cn3nnc(-c4nc(-c5cccc(F)c5)no4)c3CO2)cc1 (stereo not drawn)
993	COc1cc(-c2nc(C3CC(=O)N(c4ccc(Cl)cc4)C3)no2)cc(OC)c1OC (stereo not drawn)
941	Cc1ccc(NC(=O)NCCc2cn(CC(C)C)c3ncccc23)cc1Cl
684	COc1ccc(NC(=O)c2cnc(N3CCN(c4ccccc4F)CC3)nc2N)cc1
1050	Cc1cc(C)cc(-c2nc(C3CC(=O)N(c4ccc(F)c(Cl)c4)C3)no2)c1 (stereo not drawn)
613	CCS(=O)(=O)N1CCCN(C(=O)NC(C)C)CC1
1200	COc1ccc(-n2c(=O)c(C(=O)Nc3ccc(OC)c(F)c3)c(O)c3cccnc32)cc1
784	COc1ccc(NC(=O)N2CCC(c3nc(C(=O)N4CCCCC4)c(C)o3)CC2)cc1F
921	Cc1cc2c(c(=O)n(-c3ccc(F)cc3)c(=O)n2CC(=O)Nc2ccc(C(C)C)cc2)n1C
967	COc1c(C=O)c(O)cc2c1C(=O)c1ccccc1C2=O
678	N#Cc1ccc(CN2CC(n3cc(COc4ccc(F)cc4)nn3)C2)cc1
868	O=C(Nc1cccc(OCc2nnc(-c3ccccc3)o2)c1)c1ccoc1
620	O=C(COc1ccccc1)N1CC(n2cnnc2C2CC2)C1
1050	COc1ccccc1CNc1nc2ccccc2nc1NS(=O)(=O)c1cccs1
574	CC(C)CN1CCC(N2CC(COc3ccccc3)C3(CCOCC3)C2)CC1 (stereo not drawn)
634	O=C(c1ccc(Cl)cc1)N1CCN(c2cnn3cnnc3c2)CC1
669	Cc1oc(-c2[nH]ncc2C(=O)N2CCOCC2)cc1S(=O)(=O)Nc1cccc(F)c1
757	O=C(CSCc1ccccc1)Nc1nnc(-c2ccsc2)o1
731	Cc1ccc(-n2nc3c(=O)n(CCCC(=O)NCC4CCCO4)nc(C)c3c2C)cc1 (stereo not drawn)

RP-LC retention time [s]	Structure (SMILES)
578	COCCN1C(=O)[C@H]2CN(Cc3cc(OC)c(OC)c(OC)c3)C[C@H]2C1=O
1210	CCOc1ccc(NC(=O)C2CCCN(c3nc4ccccc4nc3C(F)(F)F)C2)cc1 (stereo not drawn)
769	O=C(N[C@@H](Cc1c[nH]c2ccccc12)C(=O)O)c1cc2ccccc2o1
798	O=C1CN(c2ccccc2NC(=O)c2cc(-c3ccccc3)on2)CCN1
752	Cc1nc(-c2cccs2)c(CCC(=O)Nc2nccs2)s1
618	COCCc1noc(C2Cc3ccccc3N2C(=O)NCc2cccc(OC)c2)n1 (stereo not drawn)
1210	CC1CCN(c2nn(CC(=O)Nc3cccc(Cl)c3)c(=O)c3ccccc23)CC1
899	Cc1oc(-c2ccc(NC(=O)Cc3ccccc3Cl)cc2)nc1Cn1cccn1
784	COc1ccc(C(=O)N2CCC3(CC2)N=C(c2ccc(Cl)cc2)NO3)cc1OC
1180	CC(C)c1cc(C(=O)Nc2ccc(F)c(F)c2)nc2ccnn12
850	CN1C(=O)c2cc(S(=O)(=O)Nc3ccc4c(c3)OCO4)ccc2Oc2cccnc21
679	COCCNC(=O)c1sc2ncn(CC(=O)N3CCCCC3C)c(=O)c2c1C (stereo not drawn)
858	COCCc1noc(C2CN(S(=O)(=O)Cc3ccccc3F)C2)n1
774	Cc1[nH]c(C(=O)N2CCC(CC(=O)NCc3ccc4c(c3)OCO4)CC2)c(C)c1C
529	COCCCNC(=O)C1CCCN(c2nnc3ccccn23)C1 (stereo not drawn)
864	C[C@H]1CN(C(=O)c2nn(C)c3ccccc23)C[C@@H]1c1nc(-c2ccncc2)no1
892	c1ccc(-c2nc3ncc4c(n3n2)CCCCC4)cc1
676	COc1ccc(NC(=O)Cn2nc3nc(N4CCCC4)ccn3c2=O)cc1Cl
957	O=C1[C@H]2CN(Cc3cc(F)cc(F)c3)C[C@H]2C(=O)N1CCc1ccccc1
608	Cc1nn2c(S(=O)(=O)N3CCN(C4CCCCC4)CC3)c(C)nc2s1
1120	Cc1nc2cc(-c3noc(Cc4ccccc4Br)n3)ccc2o1
